Read-outs that look alike come from different tables or passages of the source.
Experiments:
VIM-2 [1] = target: T1, VIM-2 (Escherichia coli, UniProt Q5U7L7); assay: fluorogenic cephalosporin FC5 MBL inhibition assay, VIM-2; assay type: biochemical; conditions: FC5 5 μM, enzyme 500 pM, quadruplicate; read-out: pIC50 VIM-2 (converted)
T1 construct: made in house
Description: (§1) The NSPCs were screened against four of the currently most clinically relevant B1 MBLs, i.e. VIM-1, VIM-2, NDM-1, and IMP-1 (Table 1), using an assay employing the “fluorogenic” cephalosporin FC5.[40]
(§2) The inhibitory activity of NSPCs 6, 8-14 against representative B1 subfamily MBLs [obtained according to previously reported production and purification procedures: VIM-1,5 VIM-2, NDM-1 and IMP-16] was determined using a fluorogenic assay monitoring the enzymatic breakdown of the cephalosporin probe FC5.6 The FC5/meropenem assays were conducted at room temperature in clear-bottomed Greiner 384 black well microplates (FC5) or Greiner 96 well UV star microplates (meropenem), using a ClarioStar or PHERAstar FS microplate reader (BMG LabTech). Representative β-lactamases were tested at the following concentrations:
(§3) VIM-1, 100 pM; NDM-1, 20 pM; IMP-1, 20 pM; and VIM-2, 500 pM. The concentration of FC5 employed was 5 μM for all enzymes. IMP-1, VIM-1, VIM-2 and NDM-1 inhibition assays were screened in “MBL buffer” (50 mM HEPES, pH 7.2, 1 μM ZnSO4, 1 μg mL−1 BSA, 0.01% v/v Triton X-100). The initial rates of reaction (measured after 10 min pre-incubation of the NSPC with the enzyme) were assessed by monitoring the fluorescence intensity at λex = 380 nm and λem = 460 nm. Following the determination of initial rates of reaction, the data were fitted using a four-parameter function: log (inhibitor) vs. response, variable slope in GraphPad Prism 6 to obtain IC50 values.6, 7

VIM-1 [2] = target: T2, VIM-1 (Pseudomonas aeruginosa, UniProt A0A0F7KYQ8); assay: fluorogenic cephalosporin FC5 MBL inhibition assay, VIM-1; assay type: biochemical; conditions: FC5 5 μM, enzyme 100 pM, quadruplicate; for IC50: read-out: pIC50 VIM-1 (converted)
T2 construct: made in house
Description: as §1, §2, §3

IMP-1 [3] = target: T3, IMP-1 (Serratia marcescens, UniProt P52699); assay: fluorogenic cephalosporin FC5 MBL inhibition assay, IMP-1; assay type: biochemical; conditions: FC5 5 μM, enzyme 20 pM, quadruplicate; read-out: pIC50 IMP-1 (converted)
T3 construct: made in house
T3 sequence (P52699 19-246, looked up, species assumed): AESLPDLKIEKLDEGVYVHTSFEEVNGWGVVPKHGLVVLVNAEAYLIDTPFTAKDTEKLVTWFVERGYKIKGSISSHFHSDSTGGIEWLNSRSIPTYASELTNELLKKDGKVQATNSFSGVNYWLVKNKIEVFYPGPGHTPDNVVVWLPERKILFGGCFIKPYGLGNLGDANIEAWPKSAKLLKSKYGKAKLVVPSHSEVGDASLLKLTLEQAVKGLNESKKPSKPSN
Description: as §1, §2, §3

NDM-1 [4] = target: T4, NDM-1 (Klebsiella pneumoniae, UniProt C7C422); assay: fluorogenic cephalosporin FC5 MBL inhibition assay, NDM-1; assay type: biochemical; conditions: for IC50: FC5 5 μM, enzyme 20 pM, quadruplicate, read-out: pIC50 NDM-1 (converted); for activity (IC50) for inhibition of NDM-1, in words: FC5 assay
T4 construct: made in house
T4 sequence (C7C422 29-270, looked up, species assumed): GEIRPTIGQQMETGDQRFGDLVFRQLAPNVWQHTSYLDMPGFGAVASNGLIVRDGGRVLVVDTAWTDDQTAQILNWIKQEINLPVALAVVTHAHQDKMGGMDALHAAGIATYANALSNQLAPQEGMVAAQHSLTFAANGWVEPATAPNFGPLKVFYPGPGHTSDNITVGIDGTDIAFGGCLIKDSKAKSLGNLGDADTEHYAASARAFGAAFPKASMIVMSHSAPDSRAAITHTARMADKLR
Description: as §1, §2, §3

VIM-2 [5] = target: T1, VIM-2; conditions: determined using 100 μM nitrocefin; cited from earlier work
NDM-1 [6] = target: T4, NDM-1; conditions: determined using 100 μM nitrocefin; cited from earlier work
IMP-1 [7] = target: T3, IMP-1; conditions: determined using 100 μM nitrocefin; cited from earlier work
NDM-1 [8] = target: T4, NDM-1; parameters: method as in PMID 32184250; conditions: determined by measuring hydrolysis of imipenem; cited from earlier work
IMP-1 [9] = target: T3, IMP-1; parameters: method as in PMID 32184250; conditions: determined by measuring hydrolysis of imipenem; cited from earlier work
VIM-2 [10] = target: T1, VIM-2; parameters: method as in PMID 32184250; conditions: determined by measuring hydrolysis of imipenem; cited from earlier work
E. coli S117 blaNDM-1 = system: E. coli S117 blaNDM-1; parameters: method as in PMID 31454231; conditions: strain S117, VNRX at 10 μg mL^–1 (printed in the [I] 8 row); cited from earlier work
VIM-2 [11] = target: T1, VIM-2; conditions: cited from earlier work
[12] = system: K. pneumoniae IR43 blaNDM-1; parameters: method as in PMID 31454231; conditions: strain IR43, VNRX at 10 μg mL^–1 (printed in the [I] 8 row); cited from earlier work
IMP-1 [13] = target: T3, IMP-1; conditions: cited from earlier work
VIM-1 [14] = target: T2, VIM-1; conditions: cited from earlier work
E. coli IR57 blaNDM-1 = system: E. coli IR57 blaNDM-1; parameters: method as in PMID 31454231; conditions: strain IR57, VNRX at 10 μg mL^–1 (printed in the [I] 8 row); cited from earlier work
[15] = system: K. pneumoniae B68-1 blaNDM-1; parameters: method as in PMID 31454231; conditions: strain B68-1, VNRX at 10 μg mL^–1 (printed in the [I] 8 row); cited from earlier work

NS(=O)(=O)n1ccc(-c2ccc(F)cc2)c1C(=O)O [6a, 3-(4-Fluorophenyl)-1-sulfamoyl-1H-pyrrole-2-carboxylic acid]
IC50 (VIM-2 [1]): 20 nM | IC50 (VIM-1 [2]): 126 nM | IC50 (IMP-1 [3]): 0.631 nM | IC50 (NDM-1 [4]): 7.94 nM | activity (IC50) for inhibition of NDM-1, in words (NDM-1 [4]): nanomolar potency

NS(=O)(=O)n1ccc(-c2ccc(F)cc2)c1C(=O)[O-].[Na+] [6b]
IC50 (VIM-2 [1]): 31.6 nM | pIC50 VIM-1 (VIM-1 [2]): 6.9 | IC50 (IMP-1 [3]): 1.26 nM | IC50 (NDM-1 [4]): 6.31 nM | activity (IC50) for inhibition of NDM-1, in words (NDM-1 [4]): nanomolar potency

NS(=O)(=O)n1ccc(-c2ccc(C3CCNCC3)cc2)c1C(=O)O [AMRC276]
pIC50 VIM-2 (VIM-2 [5]): 4.2[22] | pIC50 NDM-1 (NDM-1 [6]): 6.8[22] | pIC50 IMP-1 (IMP-1 [7]): 7.4[22]

NS(=O)(=O)n1ccc(-c2ccc(=O)[nH]c2)c1C(=O)O [AMRC364]
pIC50 VIM-2 (VIM-2 [5]): 4.4[22] | pIC50 NDM-1 (NDM-1 [6]): 5.6[22] | pIC50 IMP-1 (IMP-1 [7]): 5.7[22]

CS(=O)(=O)c1ccc(-c2ccn(S(N)(=O)=O)c2C(=O)O)cc1 [AMRC439]
pIC50 VIM-2 (VIM-2 [5]): 4.3[22] | pIC50 NDM-1 (NDM-1 [6]): 6.4[22] | pIC50 IMP-1 (IMP-1 [7]): 6.3[22]

CCc1c(C(=O)O)c(S(N)(=O)=O)c(CC)n1C [SPC]
pIC50 NDM-1 (NDM-1 [8]): 6.0[21] | pIC50 IMP-1 (IMP-1 [9]): 6.6[21] | pIC50 VIM-2 (VIM-2 [10]): 7.7[21]

NC(=O)c1ccc(-c2ccn(S(N)(=O)=O)c2C(=O)O)cc1 [compound 8]
IC50 (VIM-2 [1]): 158 nM | IC50 (VIM-1 [2]): 79.4 nM | IC50 (IMP-1 [3]): 2.51 nM | IC50 (NDM-1 [4]): 12.6 nM

Nc1ccc(-c2ccn(S(N)(=O)=O)c2C(=O)[O-])cn1.[Na+] [compound 9]
IC50 (VIM-2 [1]): 200 nM | IC50 (VIM-1 [2]): 316 nM | pIC50 VIM-2 (VIM-2 [5]): 4.5[22] | pIC50 NDM-1 (NDM-1 [6]): 6.1[22] | IC50 (IMP-1 [3]): 1 nM | IC50 (NDM-1 [4]): 12.6 nM | pIC50 IMP-1 (IMP-1 [7]): 6.4[22]

NS(=O)(=O)n1ccc(-c2cn[nH]c2)c1C(=O)O [compound 10]
IC50 (VIM-2 [1]): 15.8 nM | IC50 (VIM-1 [2]): 79.4 nM | IC50 (IMP-1 [3]): 1.26 nM | IC50 (NDM-1 [4]): 7.94 nM | activity (IC50) for inhibition of NDM-1, in words (NDM-1 [4]): nanomolar potency

Nc1ncc(-c2ccn(S(N)(=O)=O)c2C(=O)O)cn1 [compound 11]
IC50 (VIM-2 [1]): 50.1 nM | IC50 (VIM-1 [2]): 39.8 nM | IC50 (IMP-1 [3]): 6.31 nM | IC50 (NDM-1 [4]): 12.6 nM

N=C1NCC(c2ccn(S(N)(=O)=O)c2C(=O)O)CN1 (centres unmarked) [compound 12]
IC50 (VIM-2 [1]): 12.6 nM | IC50 (VIM-1 [2]): 3.16 nM | IC50 (IMP-1 [3]): 50.1 nM | IC50 (NDM-1 [4]): 316 nM

NS(=O)(=O)n1ccc(-c2ccc(N3CCOCC3)cc2)c1C(=O)O [compound 13]
IC50 (VIM-2 [1]): 158 nM | IC50 (VIM-1 [2]): 251 nM | IC50 (IMP-1 [3]): < 0.631 nM | IC50 (NDM-1 [4]): 1.58 nM | activity (IC50) for inhibition of NDM-1, in words (NDM-1 [4]): nanomolar potency

Nc1nc2ccc(-c3ccn(S(N)(=O)=O)c3C(=O)O)cn2n1 [compound 14, 3-(2-Amino-[1,2,4]triazolo[1,5-a]pyridin-6-yl)-1-sulfamoyl-1H-pyrrole-2-carboxylic acid]
IC50 (VIM-2 [1]): 6.31 nM | IC50 (VIM-1 [2]): 39.8 nM | IC50 (IMP-1 [3]): 5.01 nM | IC50 (NDM-1 [4]): 12.6 nM

NCCN[C@H]1CC[C@H](CC(=O)N[C@H]2Cc3cccc(C(=O)O)c3OB2O)CC1 [taniborbactam]
MIC of MEM in combination with VNRX (E. coli S117 blaNDM-1): 1 μg mL^–1 | pIC50 VIM-2 (VIM-2 [11]): 8.3[41] | MIC of MEM in combination with VNRX [12]: 0.25 μg mL^–1 | pIC50 IMP-1 (IMP-1 [13]): 5.6[41] | pIC50 VIM-1 (VIM-1 [14]): 8.1[41] | MIC of MEM in combination with VNRX (E. coli IR57 blaNDM-1): 0.5 μg mL^–1 | MIC of MEM in combination with VNRX [15]: 0.5 μg mL^–1
